For assay [1], the target named is FFA1-Nluc (Homo sapiens, UniProt O14842). As to the kind of experiment: DISCo-BRET (endpoint, spectra scan, kinetics) with TUG-2591 and TUG-2597 at C terminal Nluc tagged FFA1. It is filed as binding. Also on record: expressed in transfected cells. Particulars: for pIC50 DISCo-BRET NBD/Nluc / pIC50 DISCo-BRET SulfoCy5/NBD / 'bottom' of the IC50 curve, DISCo-BRET SulfoCy5/NBD: 100 nM TUG-2591 and […] TUG-2597; for pIC50 DISCo-BRET NBD/Nluc / pIC50 DISCo-BRET SulfoCy5/NBD: NC = No competition; for pIC50 DISCo-BRET SulfoCy5/NBD: one site model; for Specific BRET (540/450), % of control: Figure 4Bii, single replicate values (technical duplicate); for 'bottom' of the IC50 curve, DISCo-BRET NBD/Nluc / 'bottom' of the IC50 curve, DISCo-BRET SulfoCy5/NBD: percentage of binding obtained in the absence of competing ligand; for pKi DISCo-BRET NBD/Nluc: using Kd TUG-2597 380 nM. The procedure, abridged:
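Flp-In T-REx 293 cells expressing Nluc-tagged FFA1 were induced with 100 ng/mL doxycycline for 24 h, then given Nano-Glo (1:800 final). Endpoint and spectral reads were taken 5 min after ligand at 37 °C; kinetics were read at 25 °C with sequential ligand additions. BRET ratios were taken from Nluc, NBD and SulfoCy5 emissions.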
(In general: BRET reads energy transfer from a luciferase to a nearby fluorophore.)

For assay [2], the target named is FFA1 (Homo sapiens, UniProt O14842). Description: NanoBiT arrestin-3 recruitment in HEK293T cells. In kind it is cell-based. Further details: expressed in transfected cells; host or cells: HEK293T, transient. Particulars: for Arrestin recruitment (% TUG-905): technical duplicate; for EMax (% TUG-905) arrestin-3 recruitment: percentage of the response to 10 μM TUG-905; for EMax (% TUG-905) arrestin-3 recruitment / pEC50 arrestin-3 recruitment: ± SEM; for pEC50 arrestin-3 recruitment: N=3. On the procedure:
For arrestin-3 recruitment assays, HEK293T cells were transfected with FFA1 receptor and a bystander NanoBiT split luciferase arrestin-3 recruitment biosensor. Cells were transfected and plated simultaneously in a reverse transfection protocol into a poly-D-lysine coated white 96-well plate. Per well, 60,000 cells were transfected with 5 ng plasmid expressing LgBiT with a N-terminal Lyn11 plasma membrane localisation tag, 5 ng plasmid expressing bovine arrestin-3 fused at its N-terminal to SmBiT tag and 30 ng plasmid expressing the human FFA1 receptor. Total DNA was made up to 100 ng total/well with empty pcDNA3 vector and transfected to cell suspension with 0.6 µg/well PEI. Following transfection cells were cultured for 24 h before use. On the day of assay, cells were washed twice with HBSS and incubated in HBSS for 30 min at 37 °C. NanoGlo substrate was added at a final 1:800 dilution and incubated in the dark for 10 min at 37 °C. […] Raw luminescence values were divided by baseline signal (average of first 5 data points prior to compound addition) and vehicle measurements subtracted from agonist treatment. Area under curves were calculated and concentration response curves plotted.
A general note: Recruitment of arrestin is a read-out of receptor activation apart from second messengers.

Several values for one entry are separate records, joined by “and”; a condition that tells them apart may be missing. Equal entries are not always repeated.

FFA1, sequence (O14842 whole entry): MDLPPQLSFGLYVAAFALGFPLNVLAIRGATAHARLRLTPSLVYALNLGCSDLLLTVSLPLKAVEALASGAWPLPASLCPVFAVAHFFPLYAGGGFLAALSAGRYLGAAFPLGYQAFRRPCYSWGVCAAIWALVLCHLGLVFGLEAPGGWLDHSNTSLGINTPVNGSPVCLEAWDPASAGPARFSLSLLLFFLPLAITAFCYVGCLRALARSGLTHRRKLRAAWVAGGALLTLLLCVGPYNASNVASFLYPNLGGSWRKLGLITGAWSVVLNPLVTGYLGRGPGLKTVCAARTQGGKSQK
FFA1-Nluc, sequence (O14842 whole entry): as above

As for `COc1ccc(C(=O)N(CC(C)(C)C)c2cccc(C)n2)c(N2CCC(COc3cccc(C(CC(=O)O)C4CC4)c3)CC2)c1.O=C(O)C(F)(F)F` (stereo not drawn) [Cpd 6h, reference compound], the “pIC50 DISCo-BRET NBD/Nluc” value in assay [1] came out at 7.3±0.1. The “pIC50 DISCo-BRET SulfoCy5/NBD” value in assay [1] is on record as 7.4±0.1. The “Specific BRET (540/450), % of control” value was 29.23 % of control and -1.54 % of control and -0.53 % of control and 0.53 % of control and 0.62 % of control and 6.18 % of control and -2.77 % of control and 4.56 % of control and -7.63 % of control and 10.97 % of control in assay [1] (log[Ligand] -5); 46.57 % of control and -7.13 % of control and 13.78 % of control and 13.63 % of control and 17.56 % of control and 19.08 % of control and -1.79 % of control and 0.81 % of control and 1.43 % of control and -21.22 % of control in assay [1] (log[Ligand] -5.5); 59.72 % of control and 23.08 % of control and 13.18 % of control and 6.55 % of control and 14.37 % of control and 13.95 % of control and 102.77 % of control and 7.65 % of control and 12.16 % of control and 25.98 % of control in assay [1] (log[Ligand] -6); 46.01 % of control and 12.17 % of control and 20.56 % of control and 31.70 % of control and 26.58 % of control and 36.43 % of control and 14.98 % of control and 12.87 % of control and 22.17 % of control and 15.73 % of control in assay [1] (log[Ligand] -6.5); 46.01 % of control and 48.53 % of control and 38.93 % of control and 54.59 % of control and 43.79 % of control and 54.75 % of control and 36.48 % of control and 23.45 % of control and 26.46 % of control and 27.41 % of control in assay [1] (log[Ligand] -7); 134.69 % of control and 121.26 % of control and 83.36 % of control and 78.84 % of control and 78.63 % of control and 91.67 % of control and 70.36 % of control and 75.90 % of control and 108.22 % of control and 143.98 % of control in assay [1] (log[Ligand] -8). Also, the “Specific BRET (540/450), % of control” value in assay [1] (log[Ligand] -9) is 144.76 % of control and 148.39 % of control and 88.63 % of control and 100.08 % of control and 88.76 % of control and 93.89 % of control and 95.60 % of control and 108.79 % of control and 114.18 % of control and 110.13 % of control. In addition, the “'bottom' of the IC50 curve, DISCo-BRET NBD/Nluc” value in assay [1] is on record as 9.3%. Further, in assay [1], the “'bottom' of the IC50 curve, DISCo-BRET SulfoCy5/NBD” value is 16%. Moreover, the “pKi DISCo-BRET NBD/Nluc” value in assay [1] stood at 7.5±0.1. Also, the “Arrestin recruitment (% TUG-905)” value is 78.0249 % TUG-905 and 64.444 % TUG-905 and 40.7503 % TUG-905 and 51.9792 % TUG-905 and 61.8079 % TUG-905 and 63.543 % TUG-905 in assay [2] (log[ligand] -6); 82.3608 % TUG-905 and 53.7805 % TUG-905 and 51.6658 % TUG-905 and 54.0552 % TUG-905 and 67.7023 % TUG-905 and 49.6983 % TUG-905 in assay [2] (log[ligand] -6.5); 66.0536 % TUG-905 and 57.1103 % TUG-905 and 48.5714 % TUG-905 and 47.0829 % TUG-905 and 58.219 % TUG-905 and 65.2186 % TUG-905 in assay [2] (log[ligand] -7.5); 69.0414 % TUG-905 and 63.7801 % TUG-905 and 51.8356 % TUG-905 and 46.0645 % TUG-905 and 48.8783 % TUG-905 and 52.0275 % TUG-905 in assay [2] (log[ligand] -8). The “EMax (% TUG-905) arrestin-3 recruitment” value in assay [2] is given as 54 ± 6%. Besides, the “pEC50 arrestin-3 recruitment” value in assay [2] is on record as 9.1 ±0.1.
Regarding `COc1ccc(CCCC(C)(C)C)c(N2CCC(COc3cccc(C(CC(=O)O)C4CC4)c3)CC2)c1.O=C(O)C(F)(F)F` (stereo not drawn) [T360], the “pIC50 DISCo-BRET NBD/Nluc” value in assay [1] is listed as 7.1±0.2. In addition, in assay [1], the “pIC50 DISCo-BRET SulfoCy5/NBD” value is recorded as 7.6±0.1. In addition, the “Specific BRET (540/450), % of control” value in assay [1] (log[Ligand] -5) is 1.63 % of control and 7.70 % of control and -6.77 % of control and 6.77 % of control and -12.97 % of control and -14.56 % of control and 1.39 % of control and 12.17 % of control and -49.44 % of control and -45.86 % of control and -1.49 % of control and 1.49 % of control and 11.42 % of control and 8.60 % of control; in assay [1] (log[Ligand] -5.5), 30.05 % of control and 22.50 % of control and 2.63 % of control and 15.04 % of control and 41.18 % of control and 27.53 % of control and 25.39 % of control and 35.48 % of control and -24.38 % of control and -7.83 % of control and -19.08 % of control and -0.74 % of control and 16.94 % of control and 11.73 % of control; in assay [1] (log[Ligand] -6) it was 30.79 % of control and 26.05 % of control and 32.33 % of control and 27.63 % of control and 21.16 % of control and 17.29 % of control and 31.30 % of control and 14.26 % of control and 23.94 % of control and -20.81 % of control and -12.14 % of control and 8.18 % of control and 24.56 % of control and 26.12 % of control; in assay [1] (log[Ligand] -6.5) it was 56.11 % of control and 56.70 % of control and 19.92 % of control and 23.50 % of control and 31.40 % of control and 51.88 % of control and 45.22 % of control and 38.96 % of control and 25.28 % of control and 31.99 % of control and -27.26 % of control and -0.25 % of control and 41.03 % of control and 36.03 % of control; in assay [1] (log[Ligand] -7) it was 69.58 % of control and 52.70 % of control and 27.26 % of control and 51.32 % of control and 37.09 % of control and 73.27 % of control and 43.13 % of control and 45.22 % of control and 35.12 % of control and 64.21 % of control and 2.48 % of control and 20.07 % of control and 56.78 % of control and 46.56 % of control; in assay [1] (log[Ligand] -8) it was 90.01 % of control and 86.45 % of control and 67.29 % of control and 72.37 % of control and 95.79 % of control and 112.63 % of control and 106.43 % of control and 144.35 % of control and 71.81 % of control and 80.31 % of control and 48.08 % of control and 68.65 % of control and 78.15 % of control and 70.13 % of control. The “Specific BRET (540/450), % of control” value in assay [1] (log[Ligand] -9) was 104.22 % of control and 94.30 % of control and 79.70 % of control and 92.67 % of control and 141.30 % of control and 86.46 % of control and 144.00 % of control and 157.22 % of control and 122.37 % of control and 108.50 % of control and 74.10 % of control and 106.82 % of control and 97.86 % of control and 85.14 % of control. Moreover, in assay [1], the “'bottom' of the IC50 curve, DISCo-BRET NBD/Nluc” value worked out at 2.7%. Further, the “'bottom' of the IC50 curve, DISCo-BRET SulfoCy5/NBD” value in assay [1] came out at 25%. For the same molecule, the “pKi DISCo-BRET NBD/Nluc” value in assay [1] stood at 7.3±0.2. In addition, the “Arrestin recruitment (% TUG-905)” value was 60.5575 % TUG-905 and 49.7987 % TUG-905 and 50.2806 % TUG-905 and 80.5606 % TUG-905 and 71.6469 % TUG-905 and 70.6208 % TUG-905 in assay [2] (log[Ligand] -7); 47.2004 % TUG-905 and 63.2995 % TUG-905 and 73.3709 % TUG-905 and 81.6896 % TUG-905 and 75.2182 % TUG-905 and 56.718 % TUG-905 in assay [2] (log[ligand] -6); 57.9984 % TUG-905 and 49.7595 % TUG-905 and 71.7903 % TUG-905 and 68.6055 % TUG-905 and 72.4316 % TUG-905 and 77.5018 % TUG-905 in assay [2] (log[ligand] -6.5); 57.0191 % TUG-905 and 67.1382 % TUG-905 and 59.7164 % TUG-905 and 62.616 % TUG-905 and 83.9201 % TUG-905 and 49.002 % TUG-905 in assay [2] (log[ligand] -7.5). The “EMax (% TUG-905) arrestin-3 recruitment” value in assay [2] stood at 66 ± 8%. Besides, the “pEC50 arrestin-3 recruitment” value in assay [2] is listed as 8.9 ± 0.4.

(Values after PMC12254266, “Multicolored sequential resonance energy transfer for detection of simultaneous ligand binding at G protein-coupled receptors” (Nature Communications, 2025).)
